Assay results published in ChEMBL document CHEMBL1150470, “The synthesis and cognition enhancing effects of a series of dibenzoyl guanidines. Analogs of N,N-[[4-(aminocarbonyl)phenyl]carbonimidoyl]bis[benzamide]” (1992).
Calls of active or inactive are those of the source. No cut-off for these calls is given here.

Tests used:
Mus musculus [1] = assay: Evaluated for hypoxic survival activity in mice after intraperitoneal administration at 100 mg/kg dose; type: functional; details: ip
Mus musculus [2] = assay: Evaluated for hypoxic survival activity in mice after intraperitoneal administration at 10 mg/kg dose; type: functional; details: ip
Mus musculus [3] = assay: The compound was evaluated for improvement of anoxic amnesia in mice after ip administration at 50 mg/kg dose; 33-76; type: functional; details: route intraperitoneal
Mus musculus [4] = assay: Evaluated for hypoxic survival activity in mice after po administration of 100 mg/kg dose; type: functional
Mus musculus [5] = assay: Evaluated for hypoxic survival activity in mice after intraperitoneal administration at 100 mg/kg dose; 45-70; type: functional; details: ip
Mus musculus [6] = assay: Evaluated for hypoxic survival activity in mice after intraperitoneal administration at 100 mg/kg dose; 5-45; type: functional; details: ip
Mus musculus [7] = assay: The compound was evaluated for improvement of anoxic amnesia in mice after ip administration at 50 mg/kg dose; type: functional; details: route intraperitoneal
Mus musculus [8] = assay: Evaluated for hypoxic survival activity in mice after intraperitoneal administration at 25 mg/kg dose; 55-65; type: functional; details: ip
Mus musculus [9] = assay: Evaluated for hypoxic survival activity in mice after intraperitoneal administration at 25 mg/kg dose; 25-55; type: functional; details: ip
Mus musculus [10] = assay: Evaluated for hypoxic survival activity in mice after intraperitoneal administration at 25 mg/kg dose; 5-55; type: functional; details: ip
Mus musculus [11] = assay: The compound was evaluated for improvement of anoxic amnesia in mice after ip administration at 10 mg/kg dose; 74-(-19); type: functional; details: route intraperitoneal
Mus musculus [12] = assay: Evaluated for hypoxic survival activity in mice after intraperitoneal administration at 10 mg/kg dose; 50-50; type: functional; details: ip
Mus musculus [13] = assay: Evaluated for hypoxic survival activity in mice after intraperitoneal administration at 10 mg/kg dose; 50-80; type: functional; details: ip
Mus musculus [14] = assay: The compound was evaluated for improvement of anoxic amnesia in mice after ip administration at 50-200 mg/kg dose; Inactive; type: functional, organism-based
Mus musculus [15] = assay: The compound was evaluated for improvement of anoxic amnesia in mice after ip administration at 10 mg/kg dose; Inactive; type: functional, organism-based; parameters: dose 10 mg/kg
Mus musculus [16] = assay: Evaluated for hypoxic survival activity in mice after intraperitoneal administration at 10 mg/kg dose; 40-55; type: functional; details: ip
Mus musculus [17] = assay: Evaluated for hypoxic survival activity in mice after intraperitoneal administration at 100 mg/kg dose; 15-50; type: functional; details: ip
Mus musculus [18] = assay: Evaluated for hypoxic survival activity in mice after intraperitoneal administration at 50 mg/kg dose; type: functional; details: ip
Mus musculus [19] = assay: The compound was evaluated for improvement of anoxic amnesia in mice after ip administration at 100 mg/kg dose; Inactive; type: functional, organism-based; parameters: dose 100 mg/kg
Mus musculus [20] = assay: Evaluated for hypoxic survival activity in mice after intraperitoneal administration at 100 mg/kg dose; 55-80; type: functional; details: ip
Mus musculus [21] = assay: The compound was evaluated for improvement of anoxic amnesia in mice after ip administration at 50 mg/kg dose; 53, -8, 102; type: functional; details: route intraperitoneal
Mus musculus [22] = assay: Evaluated for hypoxic survival activity in mice after intraperitoneal administration at 100 mg/kg dose; 95-95; type: functional; details: ip
Mus musculus [23] = assay: Evaluated for hypoxic survival activity in mice after intraperitoneal administration at 0.125 mg/kg dose; 60-80; type: functional; details: ip
Mus musculus [24] = assay: Evaluated for hypoxic survival activity in mice after intraperitoneal administration at 100 mg/kg dose; 35-50; type: functional; details: ip
Mus musculus [25] = assay: Evaluated for hypoxic survival activity in mice after intraperitoneal administration at 100 mg/kg dose; 30-95; type: functional; details: ip
Mus musculus [26] = assay: The compound was evaluated for improvement of anoxic amnesia in mice after ip administration at 10 mg/kg dose; type: functional; details: route intraperitoneal
Mus musculus [27] = assay: Evaluated for hypoxic survival activity in mice after intraperitoneal administration at 10 mg/kg dose; 45-55; type: functional; details: ip
Mus musculus [28] = assay: The compound was evaluated for improvement of anoxic amnesia in mice after ip administration at 25 mg/kg dose; type: functional; details: route intraperitoneal
Mus musculus [29] = assay: Evaluated for hypoxic survival activity in mice after intraperitoneal administration at 100 mg/kg dose; 65-80; type: functional; details: ip
Mus musculus [30] = assay: The compound was evaluated for improvement of anoxic amnesia in mice after ip administration at 100 mg/kg dose; type: functional; details: route intraperitoneal
Mus musculus [31] = assay: Evaluated for hypoxic survival activity in mice after intraperitoneal administration at 50 mg/kg dose; 35-50; type: functional; details: ip
Mus musculus [32] = assay: Evaluated for hypoxic survival activity in mice after intraperitoneal administration at 100 mg/kg dose; 40-40; type: functional; details: ip

Compound: NC(=O)c1ccc(N/C(=N\C(=O)c2cccc(C(F)(F)F)c2)NC(=O)c2cccc(C(F)(F)F)c2)cc1
- survival at 100 mg/kg (Mus musculus [1]): 5%

Compound: COc1ccc(C(=O)/N=C(/NC(=O)c2ccc(OC)cc2)Nc2ccc(C(N)=O)cc2)cc1
- survival at 10 mg/kg (Mus musculus [2]): 15%

Compound: NC(=O)c1ccc(N/C(=N\C(=O)c2ccccc2)NC(=O)c2ccccc2)cc1
- Improvement (Mus musculus [3]): 50%
- survival at 100 mg/kg (Mus musculus [4]): 48%
- survival at 100 mg/kg (Mus musculus [5]): 57%

Compound: NC(=O)c1ccc(N/C(=N\C(=O)c2ccccc2)NC(=O)c2ccc([N+](=O)[O-])cc2)cc1
- survival at 100 mg/kg (Mus musculus [6]): 25%

Compound: NC(=O)c1ccc(N/C(=N\C(=O)c2ccccc2)NC(=O)c2ccc(Br)cc2)cc1
- Improvement (Mus musculus [7]): 12%
- survival at 25 mg/kg (Mus musculus [8]): 60%

Compound: NC(=O)c1ccc(N/C(=N\C(=O)c2ccc(F)cc2)NC(=O)c2ccc(Br)cc2)cc1
- survival at 25 mg/kg (Mus musculus [9]): 40%

Compound: COc1ccc(C(=O)/N=C(/NC(=O)c2cccc(Cl)c2)Nc2ccc(C(N)=O)cc2)cc1
- survival at 10 mg/kg (Mus musculus [2]): 15%

Compound: NC(=O)c1ccc(N/C(=N\C(=O)c2ccccc2)NC(=O)c2ccc(F)cc2)cc1
- survival at 25 mg/kg (Mus musculus [10]): 35%

Compound: COc1ccc(C(=O)N/C(=N/C(=O)c2ccccc2)Nc2ccc(C(N)=O)cc2)cc1
- Improvement (Mus musculus [11]): 28%
- survival at 10 mg/kg (Mus musculus [12]): 50%

Compound: CCOc1cccc(C(=O)N/C(=N/C(=O)c2ccccc2)Nc2ccc(C(N)=O)cc2)c1
- survival at 10 mg/kg (Mus musculus [13]): 67%

Compound: COc1ccc(C(=O)/N=C(/NC(=O)c2ccc(C)cc2)Nc2ccc(C(N)=O)cc2)cc1
- Improvement (Mus musculus [14]): inactive
- survival at 100 mg/kg (Mus musculus [1]): 43%

Compound: CN(C)CCOc1ccc(C(=O)N/C(=N/C(=O)c2ccccc2)Nc2ccc(C(N)=O)cc2)cc1
- Improvement (Mus musculus [15]): inactive
- survival at 10 mg/kg (Mus musculus [16]): 48%

Compound: NC(=O)c1ccc(N/C(=N\C(=O)c2ccccc2)NC(=O)c2ccccc2C(F)(F)F)cc1
- survival at 10 mg/kg (Mus musculus [2]): 5%

Compound: NC(=O)c1ccc(N/C(=N\C(=O)c2ccccc2)NC(=O)c2cccc(C(F)(F)F)c2)cc1
- survival at 10 mg/kg (Mus musculus [2]): 15%

Compound: N#Cc1ccc(C(=O)N/C(=N/C(=O)c2ccccc2)Nc2ccc(C(N)=O)cc2)cc1
- survival at 100 mg/kg (Mus musculus [17]): 38%

Compound: COc1ccc(C(=O)/N=C(/NC(=O)c2ccc(C(F)(F)F)cc2)Nc2ccc(C(N)=O)cc2)cc1
- survival at 50 mg/kg (Mus musculus [18]): 55%

Compound: NC(=O)c1ccc(N/C(=N\C(=O)c2ccc(F)cc2)NC(=O)c2cccc(F)c2)cc1
- Improvement (Mus musculus [19]): inactive
- survival at 100 mg/kg (Mus musculus [20]): 68%

Compound: NC(=O)c1ccc(N/C(=N\C(=O)c2ccccc2)NC(=O)c2cccc(Cl)c2)cc1
- Improvement (Mus musculus [21]): 49%
- survival at 100 mg/kg (Mus musculus [22]): 95%

Compound: CNC(=O)Oc1ccc2c(c1)[C@]1(C)CCN(C)[C@@H]1N2C [PHYSOSTIGMINE]
- survival at 0.125 mg/kg (Mus musculus [23]): 60%

Compound: COc1ccc(C(=O)/N=C(/NC(=O)c2ccc(F)cc2)Nc2ccc(C(N)=O)cc2)cc1
- Improvement (Mus musculus [14]): inactive
- survival at 100 mg/kg (Mus musculus [24]): 42%

Compound: NC(=O)c1ccc(N/C(=N\C(=O)c2ccc(F)cc2)NC(=O)c2cccc(Cl)c2)cc1
- survival at 10 mg/kg (Mus musculus [2]): 25%

Compound: NC(=O)c1ccc(N/C(=N\C(=O)c2ccccc2)NC(=O)c2cccc([N+](=O)[O-])c2)cc1
- survival at 100 mg/kg (Mus musculus [25]): 60%

Compound: COc1ccc(C(=O)/N=C(/NC(=O)c2cccc(C)c2)Nc2ccc(C(N)=O)cc2)cc1
- Improvement (Mus musculus [26]): 28%
- survival at 10 mg/kg (Mus musculus [27]): 50%

Compound: NC(=O)c1ccc(N/C(=N\C(=O)c2ccccc2)NC(=O)c2cccc(Br)c2)cc1
- Improvement (Mus musculus [28]): 118%
- survival at 10 mg/kg (Mus musculus [27]): 50%

Compound: Cc1ccc(C(=O)N/C(=N/C(=O)c2ccccc2)Nc2ccc(C(N)=O)cc2)cc1
- survival at 10 mg/kg (Mus musculus [2]): 5%

Compound: CC(C)(C)c1ccc(C(=O)N/C(=N/C(=O)c2ccccc2)Nc2ccc(C(N)=O)cc2)cc1
- survival at 100 mg/kg (Mus musculus [29]): 72%

Compound: Cc1cccc(C(=O)/N=C(/NC(=O)c2cccc(C)c2)Nc2ccc(C(N)=O)cc2)c1
- Improvement (Mus musculus [30]): 20%
- survival at 50 mg/kg (Mus musculus [31]): 40%

Compound: Cc1cccc(C(=O)N/C(=N/C(=O)c2ccccc2)Nc2ccc(C(N)=O)cc2)c1
- survival at 100 mg/kg (Mus musculus [1]): 25%

Compound: NC(=O)c1ccc(N/C(=N\C(=O)c2ccccc2)NC(=O)c2ccc(C(F)(F)F)cc2)cc1
- survival at 100 mg/kg (Mus musculus [32]): 40%
